According to patent US5969132:
Like-named read-outs stand apart in the source and are kept apart here.

Conditions: amide bond, NaHCO3, CH2Cl2, 72.0 h, 2 steps

Row | Compound | ring closure, yield of all isomers (from CC(C)[C@H](COCc1ccccc1)NC(=O)C(F)(F)C(O)[C@H](Cc1ccc(OCC(=O)Oc2c(F)c(F)c(F)c(F)c2F)cc1)NC(=O)[C@@H](NC(=O)CNC(=O)OC(C)(C)C)C(C)C, 1.69 mM) | ring closure, yield of all isomers (from CC(C)[C@H](NC(=O)CNC(=O)OC(C)(C)C)C(=O)N[C@@H](Cc1ccc(OCC(=O)Oc2c(F)c(F)c(F)c(F)c2F)cc1)C(O)C(F)(F)C(=O)NCc1ccccc1)
1 | CC(C)[C@H](COCc1ccccc1)NC(=O)C(F)(F)[C@H](O)[C@@H]1Cc2ccc(cc2)OCC(=O)NCC(=O)N[C@@H](C(C)C)C(=O)N1 | 8% | –
2 | CC(C)[C@@H]1NC(=O)CNC(=O)COc2ccc(cc2)C[C@@H](C(O)C(F)(F)C(=O)NCc2ccccc2)NC1=O (some centres unmarked) | – | 78.7%
